From publication PMC12030043, “Preparation and Therapeutic Evaluation of Engineered Semaglutide and Statin–Lipid Conjugate-Based Nanoparticle” (Pharmaceutics, 2025) come the findings set out here.

One series relates to fibroblast cells. The experiment in a line: Cytotoxicity assay in fibroblast cells (EZ-Cytox). Type of series: cell-based. As to conditions: 100 µg/mL, 24 h, absorbance 450 nm/600 nm, relative to untreated control, mean ± S.D., n = 5. Here is the method: The cytotoxicity of the RLC and SRLC nanoparticles was evaluated using fibroblast cells obtained from the Korean Cell Line Bank (Seoul, Republic of Korea). The fibroblast cells were cultured in high-glucose Dulbecco’s modified Eagle’s medium (DMEM) supplemented with 10% (v/v) fetal bovine serum (FBS) and 1% antibiotic–antimycotic solution. The cells were then seeded into a 96-well culture plate at a density of 1.0 × 10^4 cells per well and incubated for 1 h at 37 °C in a humidified atmosphere containing 5% CO2 to allow stabilization. Following stabilization, the cells were treated with RLC and SRLC nanoparticles at concentrations ranging from 0.1 to 100 […] for 24 h. Cell viability (n = 5) was evaluated using the EZ-Cytox cell viability assay kit, with absorbance readings taken at 450 nm and 600 nm using a microplate reader (SPECTROstar Nano, BMG LABTECH, Ortenberg, Germany). The viability of the treated cells was determined by comparing the UV absorbance values of the samples to those of the untreated control group.
To evaluate the cytotoxic effects of SRLC NPs, a cytotoxicity assay was performed using fibroblast cells at concentrations ranging from 0.1 to 100 µg/mL (Figure 6A).

Series [1] has as its system high-fat diet (HFD)-fed mouse model. Kind of series: Oral glucose tolerance test (OGTT) in HFD-fed mice. Type of series: in vivo, C57BL/6 mice. Conditions: day 64, 19 h fasting, oral glucose 2 g/kg, 0-180 min, glucometer, n = 3; RO 0.5 mg/kg, RLC 1 mg/kg, SRLC NPs 1.1 mg/kg s.c. The procedure:
All animal experiments were conducted under the standard regulations of the Institutional Animal Care and Use Committee (IACUC) at Konkuk University (ref. no. KU22078-1). The animals were housed in a controlled environment with regulated temperature and humidity, maintained under a 12 h light–dark cycle. Obesity was induced in 5-week-old male C57BL/6 mice through dietary control for 69 days. A total of 25 mice were used and divided into five experimental groups: negative control (regular diet, RD), positive control (high-fat diet, HFD), RO (0.5 mg/kg), RLC (1 mg/kg), and SRLC NPs (1.1 mg/kg). The RO dose was set at half that of RLC due to its molecular weight being approximately twice that of RLC, ensuring equivalent molar exposure. Additionally, the SRLC NP dose was adjusted to 1.1 mg/kg as it comprised 1 mg of RLC and 0.1 mg of semaglutide, allowing for the accurate comparison of therapeutic effects. While the RD group received a normal diet, the other groups were fed a high-fat diet (HFD) consisting of 60 kcal% fat (D12492, Research Diets, New Brunswick, NJ, USA). The body weights of the mice were measured weekly. Starting from day 28 of the dietary intervention, each group received their respective substances via subcutaneous injection every three days. […] Blood glucose levels were then measured at time intervals of 0, 15, 30, 60, 90, 120, and 180 min (n = 3).

The term cell viability denotes the share of living cells, or the viability signal relative to a control. A high value points to better survival.

Each structure is given as a SMILES string.

As for `CC(C)c1nc(N(C)S(C)(=O)=O)nc(-c2ccc(F)cc2)c1C=CC(O)CC(O)CC(=O)NCCNC(=O)CCC(C)C1CCC2C3C(O)CC4CC(O)CCC4(C)C3CCC12C` (centres unmarked) [RLC], the cell viability in the series on fibroblast cells is reported as 85.60 ± 2.87%. In series [1], the “blood glucose response in OGTT (in words)” value is “sharp increase in blood glucose levels immediately after administration, followed by a gradual decline”.
